The values that follow come from patent publication US11505547B2, “Compounds” (STEP PHARMA S.A.S., priority 2017, dated 2022).

The assay has as its target T1, human CTPS1 (Homo sapiens, UniProt P17812).
T1 construct: purchased Proteros biostructures GmbH
T1 sequence (P17812 1-591): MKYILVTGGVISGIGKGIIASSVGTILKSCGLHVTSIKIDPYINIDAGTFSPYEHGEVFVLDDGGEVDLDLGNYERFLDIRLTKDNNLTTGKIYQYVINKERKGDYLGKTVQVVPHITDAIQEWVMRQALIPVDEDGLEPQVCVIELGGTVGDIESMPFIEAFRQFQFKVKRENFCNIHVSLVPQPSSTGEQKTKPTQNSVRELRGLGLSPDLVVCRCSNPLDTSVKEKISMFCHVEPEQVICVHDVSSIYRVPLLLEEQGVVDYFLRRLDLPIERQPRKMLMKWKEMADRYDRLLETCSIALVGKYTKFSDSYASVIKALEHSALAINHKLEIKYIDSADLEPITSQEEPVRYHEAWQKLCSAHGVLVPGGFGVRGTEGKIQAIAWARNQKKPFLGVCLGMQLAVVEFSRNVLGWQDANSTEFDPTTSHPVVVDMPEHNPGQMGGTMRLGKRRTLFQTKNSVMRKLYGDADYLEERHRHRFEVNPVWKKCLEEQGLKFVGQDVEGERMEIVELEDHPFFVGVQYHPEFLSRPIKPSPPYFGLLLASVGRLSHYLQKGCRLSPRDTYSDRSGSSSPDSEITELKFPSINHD
Briefly: Human CTPS1 enzyme inhibition, ADP-Glo Max assay. It is filed as biochemical. As to conditions: human full length CTPS1, read-out: CTPS1 (Human CTPS1 Enzyme Inhibition data grouped by potency range, IC50). As for the experimental part: Biological Example 1—Human CTPS1 Enzyme Inhibition
The enzyme inhibitory activities of compounds invented against the target of interest were determined using the ADP-Glo™ Max assay (Promega, UK). Assays for human CTPS1 were performed in 1× assay buffer containing 50 mM Tris, 10 mM MgCl2, 0.01% Tween-20, pH to 8.0 accordingly. Finally, immediately before use, L-cysteine was added to the 1× assay buffer to a final concentration of 2 mM. All reagents are from Sigma-Aldrich unless specified otherwise. Human full length active C-terminal FLAG-Hiss-tag CTPS1 (UniProtKB-P17812, CTPS[1-591]-[…]) was obtained from Proteros biostructures GmbH.
3× human CTPS1 protein was prepared in 1× assay buffer to the final working protein concentration required for the reaction. A 2 uL volume per well of 3× human CTPS1 protein was mixed with 2 uL per well of 3× test compound (compound prepared in 1× assay buffer to an appropriate final 3× compound concentration respective to the concentration response curve designed for the compounds under test) for 10 minutes at 25° C. The enzymatic reaction was then initiated by addition of a 2 uL per well volume of a pre-mixed substrate mix (UltraPure ATP from ADP-Glo™ Max kit (0.31 mM), GTP (0.034 mM), UTP (0.48 mM) and L-glutamine (0.186 mM)) and the mixture was incubated for an appropriate amount of time within the determined linear phase of the reaction at 25° C. under sealed plate conditions with constant agitation at 500 revolutions per minute (rpm). ADP-GIo™ Max reagent was added for 60 minutes (6 uL per well) and subsequently ADP-Glo™ Max development reagent was added for 60 minutes (12 uL per well) prior to signal detection in a microplate reader (EnVision® Multilabel Reader, Perkin Elmer). Following each reagent addition over the course of the assay, assay plates were pulse centrifuged for 30 seconds at 500 rpm.
In all cases, the enzyme converts ATP to ADP and the ADP-Glo™ Max reagent subsequently depletes any remaining endogenous ATP in the reaction system. The ADP-Glo™ Max detection reagent converts the ADP that has been enzymatically produced back into ATP and using ATP as a substrate together with luciferin for the enzyme luciferase, light is generated which produces a detectable luminescence. […] The percentage inhibition produced by each concentration of compound was calculated using the equation shown below: […]
Percentage inhibition was then plotted against compound concentration, and the 50% inhibitory concentration (IC50) was determined from the resultant concentration-response curve.
On the technique in general: ADP-Glo first removes unused ATP, then detects ADP through luciferase.

One may read the pIC50 as −log10 of the IC50, conventionally taken in molar units.

pIC50: −log10 of the molar value. A value given as a limit tells only on which side of the number the result lay.

Consider `CCC(NC(=O)c1ccc(-c2cncc(C(F)(F)F)c2)cc1)c1csc(NS(=O)(=O)C2CC2)n1` (racemic) [Example R2, N-(1-(2-(cyclopropanesulfonamido)thiazol-4-yl)propyl)-4-(5-(trifluoromethyl)pyridin-3-yl)benzamide], for which the pIC50 was 6.00 to 7.00.

Take `CCC(NC(=O)c1ccc(-c2cncc(F)c2)cc1)c1csc(NS(=O)(=O)C2CC2)n1` (racemic) [Example R59, N-(1-(2-(cyclopropanesulfonamido)thiazol-4-yl)propyl)-4-(5-fluoropyridin-3-yl)benzamide]: the pIC50 was 6.00 to 7.00. `CCC(NC(=O)c1ccc(-c2cncc(C)c2)cc1)c1csc(NS(=O)(=O)C2CC2)n1` (racemic) [Example R60, N-(1-(2-(cyclopropanesulfonamido)thiazol-4-yl)propyl)-4-(5-methylpyridin-3-yl)benzamide]: the pIC50 is 6.00 to 7.00.

For the compound `CCC(NC(=O)c1ccc(-c2cccnc2)cc1)c1csc(NS(=O)(=O)C2CC2)n1` (racemic) [Example R61, N-(1-(2-(cyclopropanesulfonamido)thiazol-4-yl)propyl)-4-(pyridin-3-yl)benzamide], the pIC50 was 6.00 to 7.00.

Regarding `CCOc1cncc(-c2ccc(C(=O)NC(CC)c3csc(NS(=O)(=O)C4CC4)n3)c(F)c2)n1` (racemic) [Example R62, N-(1-(2-(cyclopropanesulfonamido)thiazol-4-yl)propyl)-4-(6-ethoxypyrazin-2-yl)-2-fluorobenzamide], the pIC50 was 6.00 to 7.00. For the compound `CCOc1cncc(-c2ccc(C(=O)N(C)C(CC)c3csc(NS(=O)(=O)C4CC4)n3)c(F)c2)n1` (racemic) [Example R63, N-(1-(2-(cyclopropanesulfonamido)thiazol-4-yl)propyl)-4-(6-ethoxypyrazin-2-yl)-2-fluoro-N-methylbenzamide], the pIC50 was 6.00 to 7.00. On to `CCC(NC(=O)c1ccc(-c2cncc(OC(C)C)n2)cc1F)c1csc(NS(=O)(=O)C2CC2)n1` (racemic) [Example R64, N-(1-(2-(cyclopropanesulfonamido)thiazol-4-yl)propyl)-2-fluoro-4-(6-isopropoxypyrazin-2-yl)benzamide], for which the pIC50 was 6.00 to 7.00. `CCC(NC(=O)c1ccc(-c2cncc(Cl)n2)cc1)c1csc(NS(=O)(=O)C2CC2)n1` (racemic) [Example R65, 4-(6-chloropyrazin-2-yl)-N-(1-(2-(cyclopropanesulfonamido)thiazol-4-yl)propyl)benzamide]: the pIC50 was over 7.00.

Consider `CCC(NC(=O)c1ccc(-c2cncc(C)n2)cc1)c1csc(NS(=O)(=O)C2CC2)n1` (racemic) [Example R66, N-(1-(2-(cyclopropanesulfonamido)thiazol-4-yl)propyl)-4-(6-methylpyrazin-2-yl)benzamide], for which the pIC50 is 6.00 to 7.00. Regarding `CCC(NC(=O)c1ccc(-c2cnccn2)cc1)c1csc(NS(=O)(=O)C2CC2)n1` (racemic) [Example R67, N-(1-(2-(cyclopropanesulfonamido)thiazol-4-yl)propyl)-4-(pyrazin-2-yl)benzamide], the pIC50 was 6.00 to 7.00.

For `CCC(NC(=O)c1ccc(-c2cncc(C(F)(F)F)c2)cc1)c1csc(NS(=O)(=O)C2CC2)n1` (single isomer, unassigned) [Example R3, N-(1-(2-(cyclopropanesulfonamido)thiazol-4-yl)propyl)-4-(5-(trifluoromethyl)pyridin-3-yl)benzamide], the negative-log IC50 (pIC50) is 6.00 to 7.00. As for `CCC(NC(=O)c1ccc(-c2cncc(C(F)(F)F)c2)cc1)c1csc(NS(=O)(=O)C2CC2)n1` (single isomer, unassigned) [Example R4, N-(1-(2-(cyclopropanesulfonamido)thiazol-4-yl)propyl)-4-(5-(trifluoromethyl)pyridin-3-yl)benzamide], the pIC50 was over 7.00.

`CCC(NC(=O)c1ccc(-c2cncc(F)c2)cc1)c1csc(NS(=O)(=O)C2CC2)n1` (single isomer, unassigned) [Example R68, N-(1-(2-(cyclopropanesulfonamido)thiazol-4-yl)propyl)-4-(5-fluoropyridin-3-yl)benzamide]: the pIC50 is 5.00 to 6.00. Regarding `CCC(NC(=O)c1ccc(-c2cncc(F)c2)cc1)c1csc(NS(=O)(=O)C2CC2)n1` (single isomer, unassigned) [Example R69, N-(1-(2-(cyclopropanesulfonamido)thiazol-4-yl)propyl)-4-(5-fluoropyridin-3-yl)benzamide], the pIC50 is over 7.00. The figure for `CCOc1cncc(-c2ccc(C(=O)NC(CC)c3csc(NS(=O)(=O)C4CC4)n3)c(F)c2)n1` (single isomer, unassigned) [Example R70, N-(1-(2-(cyclopropanesulfonamido)thiazol-4-yl)propyl)-4-(6-ethoxypyrazin-2-yl)-2-fluorobenzamide] is 6.00 to 7.00. The same measure for `O=C(NCc1csc(NS(=O)(=O)C2CC2)n1)c1ccc(-c2cccnc2)cc1` [Example R1, N-((2-(cyclopropanesulfonamido)thiazol-4-yl)methyl)-4-(pyridin-3-yl)benzamide]: 6.00 to 7.00; for `CCC(NC(=O)c1ccc(-c2cncc(C(F)(F)F)n2)cc1)c1csc(NS(=O)(=O)C2CC2)n1` (stereo not shown) [Example R5, N-(1-(2-(cyclopropanesulfonamido)thiazol-4-yl)propyl)-4-(6-(trifluoromethyl)pyrazin-2-yl)benzamide]: over 7.00; for `CCOc1cncc(-c2ccc(C(=O)NC(C)(C)c3csc(NS(=O)(=O)C4CC4)n3)c(OC)c2)n1` [Example R7, N-(2-(2-(cyclopropanesulfonamido)thiazol-4-yl)propan-2-yl)-4-(6-ethoxypyrazin-2-yl)-2-methoxybenzamide]: 6.00 to 7.00.

Regarding `O=C(NCc1csc(NS(=O)(=O)C2CC2)n1)c1ccc(-c2ccccc2)cn1` [Example R8, N-((2-(cyclopropanesulfonamido)thiazol-4-yl)methyl)-5-phenylpicolinamide], the pIC50 was 5.00 to 6.00.

With `O=C(NCc1csc(NS(=O)(=O)C2CC2)n1)c1ccc(-c2ccccc2)cc1` [Example R9, N-((2-(cyclopropanesulfonamido)thiazol-4-yl)methyl)-[1,1′-biphenyl]-4-carboxamide], the pIC50 was 5.00 to 6.00. The same measure for `O=C(NCc1csc(NS(=O)(=O)C2CC2)n1)c1ccc(-c2cncc(C(F)(F)F)n2)cc1F` [Example R10, N-((2-(cyclopropanesulfonamido)thiazol-4-yl)methyl)-2-fluoro-4-(6-(trifluoromethyl)pyrazin-2-yl)benzamide]: over 7.00; for `CCOc1cncc(-c2ccc(C(=O)NCc3csc(NS(=O)(=O)C4CC4)n3)c(F)c2)n1` [Example R11, N-((2-(cyclopropanesuIfonamido)thiazol-4-yl)methyl)-4-(6-ethoxypyrazin-2-yl)-2-fluorobenzamide]: over 7.00; for `O=C(NCc1csc(NS(=O)(=O)C2CC2)n1)c1ccc(-c2cncc(C(F)(F)F)n2)cc1` [Example R12, N-((2-(cyclopropanesulfonamido)thiazol-4-yl)methyl)-4-(6-(trifluoromethyl)pyrazin-2-yl)benzamide]: over 7.00. The same measure for `CC(C)Oc1cncc(-c2ccc(C(=O)NCc3csc(NS(=O)(=O)C4CC4)n3)cc2)n1` [Example R13, N-((2-(cyclopropanesulfonamido)thiazol-4-yl)methyl)-4-(6-isopropoxypyrazin-2-yl)benzamide]: over 7.00; for `CCOc1cncc(-c2ccc(C(=O)NCc3csc(NS(=O)(=O)C4CC4)n3)cc2)n1` [Example R14, N-((2-(cyclopropanesulfonamido)thiazol-4-yl)methyl)-4-(6-ethoxypyrazin-2-yl)benzamide]: over 7.00.
